The values below are quoted from earlier work in patent US20150335557A1, “ANTI-PLAQUE ORAL COMPOSITIONS” (priority 2012, published 2015).

The conditions of the data set: @ 79° F.

As to `CS(C)(=O)=O` [MSM, methylsulfonylmethane], the water solubility is reported as 34 % w/v.
